According to US20130072506A1, “6,8-DISUBSTITUTED PURINE COMPOSITIONS” (priority 2011, published 2013):
Where two headings read alike, the source gives them in different places.

What was measured:
[1] = test system: T-lymphoblastic leukemia cell line CEM; test: In vitro cytotoxic activity (metabolisation of Calcein AM); format: cell-based, human; settings: CEM cells, 72 hours incubation, called GI50, read-out: Cell line tested/IC50 (μmol/L) CEM
From the text: (§1) In vitro Cytotoxic Activity (Metabolisation of Calcein AM). Because toxic compounds negatively influence metabolic processes of cells, many standard cytotoxicity assays are based on measurement of metabolisation rate of various artificial substrates. Resulting product is then quantified, for example, by means of spectrometry. The assays can be easily modified for use in 96-well plates. For evaluation of cytotoxicity of the 6,8-disubstituted purines of this invention, a microtiter assay based on quantification of metabolisation of Calcein AM was used. The assay is widely used in drug screening programs and in chemosensitivity testing. In live cells, Calcein AM is enzymatically hydrolysed and accumulation of resulting calcein is manifested by green fluorescence.
(§2) The following human cell lines were used for routine screening of the compounds: normal diploid fibroblasts BJ, T-lymphoblastic leukemia cell line CEM, promyelocytic leukemia cell line HL-60, erytroid leukemia cell line K-562, breast carcinoma cell line MCF-7, osteosarcoma cell line HOS and melanoma cell line G-361. The cells were maintained in Nunc/Corning 80 cm^2 plastic tissue culture flasks and cultured in cell culture medium (DMEM with 5 g/l glucose, 2 mM glutamine, […] penicillin, 100 mmg/ml streptomycin, 10% fetal calf serum and sodium bicarbonate).
(§3) The cell suspensions were prepared and diluted according to the particular cell type and the expected target cell density (2.500-30.000 cells per well based on cell growth characteristics) and pipetted (80 μl) into 96-well plates. Inoculates were allowed a pre-incubation period of 24 hours at 37° C. and 5% CO2 for stabilization. Tested compound was added in total volume of […] of water at time zero. Usually, test compound was evaluated at six 3-fold dilutions. In routine testing, the highest concentration tested was 100 μM, but it could have been adjusted because of limited solubility of a compound. All drug concentrations were tested in triplicates.
(§4) Incubations of cells with the test compounds lasted for 72 hours at 37° C., in 5% CO2 atmosphere and 100% humidity. At the end of incubation period Calcein AM in PBS was added into final concentration of 1 μg/ml. After another 1 hour of incubation fluorescence (FD) was measured with the Labsystem FIA Reader Fluoroscan Ascent (UK). Growth inhibition (GI) was estimated using the following equitation: GI=(mean FDdrug exposed wells−mean FDblank)/(mean FDcontrol wells−mean FDblank)×100%. The GI50 value, the drug concentration causing 50% reduction of Calcein AM conversion, was calculated from the obtained dose response curves.

[2] = test system: breast carcinoma cell line MCF-7; test: as above; format: cell-based, human; settings: MCF7 cells, 72 hours incubation, called GI50, read-out: Cell line tested/IC50 (μmol/L) MCF7
From the text: as §1, §2, §3, §4

[3] = test system: erytroid leukemia cell line K-562; test: as above; format: cell-based, human; settings: 72 hours incubation, called GI50, read-out: Cell line tested/IC50 (μmol/L) K-562
From the text: as §1, §2, §3, §4

melanoma cell line G-361 = test: as above; format: cell-based, human; settings: G-361 cells, 72 hours incubation, called GI50, read-out: Cell line tested/IC50 (μmol/L) G-361
From the text: as §1, §2, §3, §4

[4] = test system: normal diploid fibroblasts BJ; test: as above; format: cell-based, human; settings: BJ cells, 72 hours incubation, called GI50, read-out: Cell line tested/IC50 (μmol/L) BJ
From the text: as §1, §2, §3, §4

[5] = test system: osteosarcoma cell line HOS; test: as above; format: cell-based, human; settings: HOS cells, 72 hours incubation, called GI50, read-out: Cell line tested/IC50 (μmol/L) HOS
From the text: as §1, §2, §3, §4

[6] = test system: Human diploid fibroblast BJ; test: In vitro cytotoxic activity (metabolisation of MTT); format: cell-based; settings: 72 hours, BJ passage 18-22
Protocol: In vitro Cytotoxic Activity (metabolisation of Mtt). MTT ([…]) assay is a standard colorimetric assay for evaluation of cytotoxicity. Mitochondrial dehydrogenase activity converts yellow MTT into violet formazan which is measured by means of spectrometry.
Human diploid fibroblast BJ (passage 18-22) were seeded into 96-well plate (5.000 cells per well). After 6 hours cultivation medium (DMEM with 5 g/l glucose, 2 mM glutamine, 100 U/ml penicillin, 100 mmg/ml streptomycin, 10% fetal calf serum and sodium bicarbonate) was replaced with the cultivation medium containing test compounds in concentration range of 0-200 μM. Highest concentration was adjusted if the solubility of the compound was limiting. Every concentration was tested in pentaplicate. MTT was added to the cells after 72 hours incubation (final concentration 0.5 mg/ml) and incubation continued for another 3 hours. MTT was solubilised by DMSO and absorbance at 570 nm was measured. Growth inhibition (GI) was estimated using the following equitation: GI=(mean A drug exposed wells−mean Ablank/mean Acontrol wells−mean Ablank)×100%. The GI20 value, the drug concentration causing 20% decrease in mitochondrial dehydrogenase activity, was calculated from the obtained dose response curves.

[7] = Homo sapiens, K562, K-562 cells

SMILES | IC50 [1] [µmol/L] | IC50 [2] [µmol/L] | IC50 ([3]; K-562 cells) [µmol/L] | IC50 (melanoma cell line G-361) [µmol/L] | IC50 [4] [µmol/L] | IC50 [5] [µmol/L] | GI20 [6] [µM] | IC50 ([1]; Homo sapiens, CCRF-CEM) [µmol/L] | IC50 ([2]; Homo sapiens) [µmol/L] | IC50 [3, 7] [µmol/L] | IC50 (melanoma cell line G-361; Homo sapiens) [µmol/L] | IC50 ([4]; Homo sapiens) [µmol/L] | IC50 ([5]; Homo sapiens) [µmol/L]
Cc1cccc(Nc2ncnc3nc(N(C)C)[nH]c23)c1 [Compound 81] | > 50 | > 50 | > 50 | > 50 | > 50 | > 50 | >100 |  |  |  |  |  | 
CC(=CCNc1ncnc2nc(N)[nH]c12)CO [Compound 84] | > 50 | > 50 | > 50 | > 50 | > 50 | > 50 | >100 |  |  |  |  |  | 
C/C(=C\CNc1ncnc2nc(N)[nH]c12)CO [Compound 85, 6-(E)-(4-hydroxy-3-methylbut-2-en-1-ylamino)-8-aminopurine] |  |  |  |  |  |  | >100 | > 50 | > 50 | > 50 | > 50 | > 50 | > 50
CC(CO)CCNc1ncnc2nc(N)[nH]c12 (stereo not drawn) [Compound 86, 6-(4-hydroxy-3-methylbutylamino)-8-aminopurine] |  |  |  |  |  |  | >100 | > 50 | > 50 | > 50 | > 50 | > 50 | > 50
Nc1nc2ncnc(NCc3ccccc3F)c2[nH]1 [Compound 88] | > 50 | > 50 | > 50 | > 50 | > 50 | > 50 | >100 |  |  |  |  |  | 
Nc1nc2ncnc(NCc3cccc(F)c3)c2[nH]1 [Compound 89] | > 50 | > 50 | > 50 | > 50 | > 50 | > 50 | >100 |  |  |  |  |  | 
Nc1nc2ncnc(NCc3ccc(F)cc3)c2[nH]1 [Compound 90] | > 50 | > 50 | > 50 | > 50 | > 50 | > 50 | >100 |  |  |  |  |  | 
Nc1nc2ncnc(NCc3cccc(Cl)c3)c2[nH]1 [Compound 91] | > 50 | > 50 | > 50 | > 50 | > 50 | > 50 | >100 |  |  |  |  |  | 
Nc1nc2ncnc(NCc3ccc(Cl)cc3)c2[nH]1 [Compound 92] | > 50 | > 50 | > 50 | > 50 | > 50 | > 50 | >100 |  |  |  |  |  | 
COc1ccccc1CNc1ncnc2nc(N)[nH]c12 [Compound 97] | > 50 | > 50 | > 50 | > 50 | > 50 | > 50 | >100 |  |  |  |  |  | 
COc1cccc(CNc2ncnc3nc(N)[nH]c23)c1 [Compound 98] | > 50 | > 50 | > 50 | > 50 | > 50 | > 50 | >100 |  |  |  |  |  | 
COc1ccc(CNc2ncnc3nc(N)[nH]c23)cc1 [Compound 99] | > 50 | > 50 | > 50 | > 50 | > 50 | > 50 | >100 |  |  |  |  |  | 
Nc1nc2ncnc(NCc3cccc([N+](=O)[O-])c3)c2[nH]1 [Compound 100] | > 50 | > 50 | > 50 | > 50 | > 50 | > 50 | >100 |  |  |  |  |  | 
Nc1nc2ncnc(NCc3ccc(Cl)c(Cl)c3)c2[nH]1 [Compound 101] | > 50 | > 50 | > 50 | > 50 | > 50 | > 50 | >100 |  |  |  |  |  | 
Nc1nc2ncnc(NCc3cccc(O)c3O)c2[nH]1 [Compound 102] | > 50 | > 50 | > 50 | > 50 | > 50 | > 50 | >100 |  |  |  |  |  | 
